In ChEMBL document CHEMBL5370554, “Discovery of a first-in-class Aurora A covalent inhibitor for the treatment of triple negative breast cancer” (Eur J Med Chem, 2023):
pIC50: −log10 of the molar value.

Legend:
Aurora kinase A = target: T1, Aurora kinase A (Homo sapiens, UniProt O14965); assay: Inhibition of recombinant human Aurora A (1 to 403 residues) expressed in Escherichia coli using FAM-labeled peptide as substrate preincubated for 10 mins followed by substrate addition and measured after 20 mins in presence of ATP by HTRF assay
T1 sequence (O14965 whole entry): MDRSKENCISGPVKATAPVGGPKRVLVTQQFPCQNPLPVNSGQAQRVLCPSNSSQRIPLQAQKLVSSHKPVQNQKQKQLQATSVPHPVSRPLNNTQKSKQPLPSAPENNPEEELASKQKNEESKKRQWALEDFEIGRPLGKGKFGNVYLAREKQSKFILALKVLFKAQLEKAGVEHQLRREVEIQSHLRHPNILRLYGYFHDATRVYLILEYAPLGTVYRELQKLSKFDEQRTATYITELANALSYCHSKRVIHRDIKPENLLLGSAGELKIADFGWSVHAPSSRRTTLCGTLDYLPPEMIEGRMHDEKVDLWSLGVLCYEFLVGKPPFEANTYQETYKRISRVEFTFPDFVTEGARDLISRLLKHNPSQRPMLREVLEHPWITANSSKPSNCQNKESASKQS

MDA-MB-231 [1] = assay: Antiproliferative activity against human MDA-MB-231 cells assessed as inhibition of cell proliferation incubated for 48 hrs by CCK-8 assay; format: functional, cell-based; conditions: MDA-MB-231, 48 h
A549 = assay: Antiproliferative activity against human A549 cells assessed as inhibition of cell proliferation incubated for 48 hrs by CCK-8 assay; format: functional, cell-based; conditions: A549, 48 h
HeLa = assay: Antiproliferative activity against human HeLa cells assessed as inhibition of cell proliferation incubated for 48 hrs by CCK-8 assay; format: functional, cell-based
SJSA-1 = assay: Antiproliferative activity against human SJSA-1 cells assessed as inhibition of cell proliferation incubated for 48 hrs by CCK-8 assay; format: functional, cell-based; conditions: SJSA-1, 48 h
[2] = Cytotoxicity against human L02 cells assessed as inhibition of cell proliferation incubated for 48 hrs by CCK-8 assay; format: toxicity, cell-based
[3] = Toxicity in BALB/c nude mouse xenografted with human MDA-MB-231 cells assessed as body weight change at 30 mg/kg,ip every 2days for 20 days; format: organism-based; conditions: in vivo, 480 h, time 20 day
MDA-MB-231 [4] = assay: Antitumor activity against human MDA-MB-231 cells xenografted in BALB/c nude mouse assessed as tumor growth inhibition at 30 mg/kg,ip every 2days for 20 days; format: functional; conditions: MDA-MB-231, 480 h, time 20 day, read-out: TGI

| pIC50 (Aurora kinase A) | pIC50 (MDA-MB-231 [1]) | pIC50 (A549) | pIC50 (HeLa) | pIC50 (SJSA-1) | SMILES | IC50 at 48 h [2] [µM] | Activity [3] | inhibition in vivo at 30 mg/kg (MDA-MB-231 [4]) [%] |
| --- | --- | --- | --- | --- | --- | --- | --- | --- |
| 8.51 | 6.19 | 5.39 | 5.31 | 5.55 | Cc1cc(Nc2nc(-c3ccc(N)cc3)nc3cc(N4CCN(C)CC4)ccc23)n[nH]1 | – | – | – |
| – | 5.16 | 5.75 | 5.12 | 4.90 | Cc1cc(Nc2nc(-c3cccc(N)c3)nc3cc(N4CCOCC4)ccc23)n[nH]1 | – | – | – |
| 8.70 | 5.83 | 5.67 | 5.17 | 4.97 | Cc1cc(Nc2nc(-c3cccc(O)c3)nc3cc(N4CCN(C)CC4)ccc23)n[nH]1 | – | – | – |
| 8.57 | 5.58 | 6.59 | 5.26 | 4.83 | C=CC(=O)Nc1ccc(-c2nc(Nc3cc(C)[nH]n3)c3ccc(N4CCOCC4)cc3n2)cc1 | 43.2 | – | – |
| 8.68 | 5.76 | 5.69 | 5.17 | 5.44 | Cc1cc(Nc2nc(-c3cccc(N)c3)nc3cc(N4CCN(C)CC4)ccc23)n[nH]1 | – | – | – |
| – | 5.36 | 5.79 | 5.14 | 5.18 | Cc1cc(Nc2nc(-c3ccc(N)cc3)nc3cc(N4CCOCC4)ccc23)n[nH]1 | – | – | – |
| 8.82 | 5.59 | 5.49 | 5.37 | 5.17 | C=CC(=O)Nc1cccc(-c2nc(Nc3cc(C)[nH]n3)c3ccc(N4CCN(C)CC4)cc3n2)c1 | – | – | – |
| 8.30 | 5.66 | 5.93 | 4.75 | 4.54 | CCC(=O)Nc1ccc(-c2nc(Nc3cc(C)[nH]n3)c3ccc(N4CCN(C)CC4)cc3n2)cc1 | 24.7 | – | – |
| 7.96 | 6.12 | 5.95 | 5.08 | 5.58 | Cc1cc(Nc2nc(-c3ccccc3N)nc3cc(N4CCN(C)CC4)ccc23)n[nH]1 | – | – | – |
| 8.77 | 5.23 | 6.07 | 5.65 | 4.90 | C=CC(=O)Nc1cccc(-c2nc(Nc3cc(C)[nH]n3)c3ccc(N4CCOCC4)cc3n2)c1 | – | – | – |
| 8.60 | 5.87 | 5.32 | 5.01 | 4.76 | Cc1cc(Nc2nc(-c3ccc(O)cc3)nc3cc(N4CCN(C)CC4)ccc23)n[nH]1 | – | – | – |
| – | 5.28 | 5.58 | 5.04 | 4.25 | Cc1cc(Nc2cc(N3CCN(C)CC3)nc(/C=C/c3ccccc3)n2)n[nH]1 [ENMD-2076] | 42.6 | Non-Toxic | 30.9 |
| 7.35 | 4.87 | 4.71 | 4.39 | 4.86 | C=CC(=O)Nc1ccccc1-c1nc(Nc2cc(C)[nH]n2)c2ccc(N3CCN(C)CC3)cc2n1 | – | – | – |
| 8.26 | 5.61 | 5.57 | 5.42 | 4.94 | Cc1cc(Nc2nc(-c3ccccc3O)nc3cc(N4CCN(C)CC4)ccc23)n[nH]1 | – | – | – |
| 8.96 | 5.78 | 6.51 | 5.04 | 4.63 | C=CC(=O)Nc1cc(-c2nc(Nc3cc(C)[nH]n3)c3ccc(N4CCN(C)CC4)cc3n2)ccc1C | 34.2 | – | – |
| – | 5.84 | 5.84 | 5.26 | 4.73 | Cc1cc(Nc2nc(-c3ccccc3)nc3cc(N4CCN(C)CC4)ccc23)n[nH]1 | 2.74 | – | – |

| SMILES | pIC50 (Aurora kinase A) | pIC50 (MDA-MB-231 [1]) | pIC50 (A549) | pIC50 (HeLa) | pIC50 (SJSA-1) | IC50 at 48 h [2] [µM] | Activity [3] | inhibition in vivo at 30 mg/kg (MDA-MB-231 [4]) [%] |
| --- | --- | --- | --- | --- | --- | --- | --- | --- |
| Cc1cc(Nc2nc(-c3ccc(OS(=O)(=O)F)cc3)nc3cc(N4CCN(C)CC4)ccc23)n[nH]1 | 7.60 | 5.36 | 5.94 | 5.31 | 4.64 | – | – | – |
